The record followed here is patent publication US20250257041A1, “INDUCERS OF INTEGRATED STRESS RESPONSE TO TREAT CANCER” (The Board of Regents of The University of Texas System, priority 2022, published 2025).

One assay relates to Jurkat cells. Nature of the assay: Jurkat cell proliferation over three days, Cell Titer Glo. The format is cell-based, human. As to the method:
FIG. 5A provides cell proliferation studies using Jurkat cells using exemplary novel compounds provided in the current disclosure. Jurkat cells, which are derived from a human leukemia, were incubated with varying concentrations of SW388710. Cell proliferation over three days was evaluated using luminescence from Cell Titer Glo (Promega) which reflects ATP levels.
FIG. 5B provides cell proliferation studies using Jurkat cells using exemplary novel compounds provided in the current disclosure. Jurkat cells, which are derived from a human leukemia, were incubated with varying concentrations of SW393071. Cell proliferation over three days was evaluated using luminescence from Cell Titer Glo (Promega) which reflects ATP levels.
For orientation: In ATP-based viability assays light output follows the ATP content of the culture.

For another assay, the system named is HCT116 GCN2KO. Nature of the assay: Proliferation of HCT116 cells with GCN2 knocked out (CRISPR), Cell TiterGlo. To be noted: for IC50: Homo sapiens. The class given is cell-based, human. As to the method:
Briefly, compounds were tested for their effect on proliferation of HCT116 colorectal cell lines using Cell TiterGlo (Promega). Each compound was tested in a 10-point dose response experiment in triplicate. Multiple values in the column titled HCT116 WT reflect separate independent experiments. The three columns titled “HCT116 WT (repeat)”, “HCT116-CGN2KO” and “HCT116 WT+ISRIB” provide data for selected compounds that were tested simultaneously under three conditions. The HCT116 WT column lists IC50 against the wild type HCT116 colorectal cancer cell line. The HCT116-CGN2KO lists IC50 data for cells in which one component of the integrated stress response, GCN2, has been knocked out using CRISPR technology.

In the next assay the test system is HCT116 WT. Nature of the assay: Proliferation of HCT116 colorectal cell line, Cell TiterGlo. The class given is cell-based, human. The method, boiled down:
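HCT116 colorectal cells, wild type, GCN2 CRISPR knockout, or wild type plus ISRIB; proliferation read by CellTiter-Glo luminescence. 10-point dose response in triplicate, IC50 reported; multiple values are independent experiments.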

For another assay, the system named is phospho-GCN2. Nature of the assay: Western blot for phospho-GCN2 in HCT116 wild-type and RPS23 mutant cells. The format is cell-based, human. Particulars: wild-type HCT116 versus RPS23 del R107-G109 mutant. The method, then: FIG. 12 is a western blot analysis showing the RPS23 is required for induction of GCN2 phosphorylation by SW710 (SW388710). Cells were incubated with SW710, lysed, then evaluated via western blot for phospho-GCN2, a marker of activation of the integrated stress response.
To confirm this hypothesis, wild-type HCT116 cells and HCT116 RPS23 del R107-G109 mutant cells were incubated with SW388710. Cells were lysed and evaluated via western blot for phospho-GCN2, a marker of activation of the integrated stress response.
(Immunoblotting shows a protein as a band on a membrane.)

Another assay relates to Jurkat (Leukemia) cells. Nature of the assay: Jurkat viability and cytotoxicity, GF-AFC and Cytox. To be noted: varying doses. The format is cell-based, human. The method, then:
FIG. 6A provides cytotoxicity studies for leukemia cells (Jurkat) with compound SW388710. […] Jurkat (Leukemia) cells were incubated with varying doses of SW388710.

The test system of assay [1] is HCT-116 (colorectal) cells. Nature of the assay: HCT-116 viability and cytotoxicity, GF-AFC and Cytox. Particulars: varying doses. The class given is cell-based, human. The method, then: FIG. 6B provided cytostatic data for colorectal cells, with compound SW388710. […] HCT-116 (colorectal) cells were incubated with varying doses of SW388710.
In another assay the target is T1, RPS23 (Homo sapiens, UniProt P62266).
T1 construct: endogenous in cells; host or cells: HCT116
Nature of the assay: Photo-crosslinking in HCT116 cells, biotin-azide click, streptavidin pull-down, western blot for RPS23. Particulars: HCT116 wild-type or RPS23 del R107-G109 mutant, UV irradiation. The class given is binding. As to the method:
Next HCT116 cells were incubated with SW393071 analogs conjugated to a photo-crosslinker (analogs: SW393065, SW393212 and SW393213), and irradiated with UV light. The cells were lysed and click-conjugated to biotin-azide. Drug-bound proteins were pulled down with streptavidin coated beads and resolved on an SDS-PAGE gel.
Wild-type or RPS23 del R107-G109 knock-in mutant HCT116 cells were incubated with photo-crosslinker analog SW393212 and irradiated with UV light. The cells were lysed, and click-conjugated to biotin-azide essentially as shown in Example 7. Drug-bound proteins were pulled down with streptavidin coated beads and resolved on an SDS-PAGE gel.

The mark [2] stands for this setting: HCT-116, HCT116 cells with GCN2 knocked out using CRISPR, read-out: HCT116 IC50 (uM) HCT116 − GCN2KO.
Setting [3] is: Homo sapiens, HCT-116, wild type HCT116, 10-point dose response in triplicate, multiple values = separate independent experiments, read-out: HCT116 IC50 (uM) HCT116 WT.
Setting [4] is: Homo sapiens, HCT-116, wild type HCT116, tested simultaneously with GCN2KO and +ISRIB, read-out: HCT116 IC50 (uM) HCT116 WT (repeat).
The mark [5] stands for this setting: wild type HCT116, compound plus 10 nM of ISRIB, read-out: HCT116 IC50 (uM) HCT116 WT + ISRIB.

Where two headings read alike, the source gives them in different places.

As to `COc1cccc(C(=O)Nc2cc(-c3ccc(NC(=O)c4ccccc4)cc3)nn2C)c1` [SW388710, N-(3-(4-Benzamidophenyl)-1-methyl-1H-pyrazol-5-yl)-3-methoxybenzamide], the IC50 worked out at 78.2 nM in the assay with Jurkat cells (Homo sapiens, Jurkat, 72 h, three days, Cell Titer Glo luminescence); 1.95 µM in the assay with HCT116 GCN2KO (setting [2]); 0.23 µM with HCT116 WT (setting [3]); 0.21 µM in the assay with HCT116 WT (setting [4]); 1.89 µM in the assay on HCT116 WT (setting [5]). Also, the “Effect of ISRIB on anti-proliferative activity in Jurkat cells” value in the assay on Jurkat cells (addition of 10 nM of ISRIB) was “relative resistance”. For the same compound, the “Resistance on knockout of GCN2” value in the assay with HCT116 GCN2KO (HCT116, GCN2 but not other activating kinases) was “confers resistance”. In addition, in the assay with phospho-GCN2, the “Activation of the ISR (phosphorylation of GCN2)” value is “Wild-type but not RPS23 mutant cells, showed activation of the ISR”. Also, the “Cell death in leukemic cells” value in the assay with Jurkat (Leukemia) cells was “induces cell death in leukemic cells”. Moreover, the “Proliferation of colorectal cancer cells” value in assay [1] is listed as “reduces the proliferation of colorectal cancer cells”.
For the compound `Cn1nc(-c2ccc(NC(=O)c3ccccc3)cc2)cc1NC(=O)c1ccc(Cl)cc1` [SW393132, N-(3-(4-benzamidophenyl)-1-methyl-1H-pyrazol-5-yl)-4-chlorobenzamide], the IC50 is at least 50 µM in the assay with HCT116 GCN2KO (setting [2]), above 50 µM in the assay on HCT116 WT (setting [3]) and at least 50 µM in the assay on HCT116 WT (setting [4]).
As to `Cn1nc(-c2ccc(NC(=O)c3ccccc3Br)cc2)cc1NC(=O)c1ccccc1` [SW393133, N-(4-(5-benzamido-1-methyl-1H-pyrazol-3-yl)phenyl)-2-bromobenzamide], the IC50 with HCT116 GCN2KO (setting [2]) amounted to 0.21 µM; in the assay with HCT116 WT (setting [3]), 0.01 µM; in the assay on HCT116 WT (setting [4]), 0.03 µM; in the assay with HCT116 WT (setting [5]), 0.3 µM.
For `Cc1ccccc1C(=O)Nc1ccc(-c2cc(NC(=O)c3ccccc3)n(C)n2)cc1` [SW393134, N-(4-(5-benzamido-1-methyl-1H-pyrazol-3-yl)phenyl)-2-methylbenzamide] the same measures were 0.17 µM, 0.012 µM, 0.02 µM and 0.19 µM.
Regarding `C#CCOc1ccc(C(=O)c2cccc(C(=O)Nc3cc(-c4ccc(NC(=O)c5ccccc5Cl)cc4)nn3C)c2)cc1` [SW393141, 2-Chloro-N-(4-(1-methyl-5-(3-(4-(prop-2-yn-1-yloxy)benzoyl)benzamido)-1H-pyrazol-3-yl)phenyl)benzamide], the IC50 with HCT116 GCN2KO (setting [2]) was 0.49 µM; in the assay on HCT116 WT (setting [3]), 0.12 µM; in the assay with HCT116 WT (setting [4]), 0.3 µM; with HCT116 WT (setting [5]), 0.41 µM.
On to `Cn1nc(-c2ccc(NC(=O)c3ccccc3Cl)cc2)cc1NC(=O)c1ccc(C2(C(F)(F)F)N=N2)cc1` [SW393142, 2-Chloro-N-(4-(1-methyl-5-(4-(3-(trifluoromethyl)-3H-diazirin-3-yl)benzamido)-1H-pyrazol-3-yl)phenyl)benzamide], for which the IC50 came to 3.22 µM in the assay on HCT116 GCN2KO (HCT-116, read-out: HCT116 IC50 (uM) HCT116 − GCN2KO); 3.6 µM in the assay with HCT116 WT (Homo sapiens, HCT-116, read-out: HCT116 IC50 (uM) HCT116 WT); 1.59 µM in the assay with HCT116 WT (Homo sapiens, HCT-116, read-out: HCT116 IC50 (uM) HCT116 WT (repeat)); 3.41 µM with HCT116 WT (read-out: HCT116 IC50 (uM) HCT116 WT + ISRIB, wild type HCT116, compound plus 10 nM of ISRIB).
For the compound `Cn1nc(-c2ccc(NC(=O)c3ccccc3[N+](=O)[O-])cc2)cc1NC(=O)c1ccccc1` [SW393143, N-(4-(5-benzamido-1-methyl-1H-pyrazol-3-yl)phenyl)-2-nitrobenzamide], the IC50 with HCT116 GCN2KO (setting [2]) worked out at 0.12 µM; in the assay on HCT116 WT (setting [3]), 0.01 µM; with HCT116 WT (setting [4]), 0.02 µM; in the assay with HCT116 WT (setting [5]) it was 0.14 µM.
For the compound `Cn1nc(-c2ccc(NC(=O)c3c(Cl)cccc3Cl)cc2)cc1NC(=O)c1ccccc1` [SW393144, N-(4-(5-benzamido-1-methyl-1H-pyrazol-3-yl)phenyl)-2,6-dichlorobenzamide], the IC50 in the assay on HCT116 GCN2KO (setting [2]) was 2.31 µM; in the assay with HCT116 WT (setting [3]) it was 0.13 µM; with HCT116 WT (setting [4]), 0.43 µM; with HCT116 WT (setting [5]), 2.55 µM.
For `C#CCOc1ccccc1C(=O)Nc1ccc(-c2cc(NC(=O)c3ccccc3)n(C)n2)cc1` [SW393168, N-(4-(5-benzamido-1-methyl-1H-pyrazol-3-yl)phenyl)-2-(prop-2-yn-1-yloxy)benzamide] the same measures were 2.95 µM, 0.34 µM, 1.02 µM and 3.23 µM.
For `CSc1ccccc1C(=O)Nc1ccc(-c2cc(NC(=O)c3ccccc3)n(C)n2)cc1` [SW393169, N-(4-(5-benzamido-1-methyl-1H-pyrazol-3-yl)phenyl)-2-(methylthio)benzamide] the same measures were 0.41 µM, 0.01 µM, 0.06 µM and 0.49 µM.
For `Cn1nc(-c2ccc(NC(=O)c3ccccc3N=[N+]=[N-])cc2)cc1NC(=O)c1ccccc1` [SW393170, N-(4-(5-benzamido-1-methyl-1H-pyrazol-3-yl)phenyl)-2-azidobenzamide] the same measures were 0.93 µM, 0.03 µM, 0.12 µM and 0.84 µM.
Turning to `Cn1nc(-c2ccc(NC(=O)c3cc(N=[N+]=[N-])ccc3Cl)cc2)cc1NC(=O)c1ccccc1` [SW393171, 5-azido-N-(4-(5-benzamido-1-methyl-1H-pyrazol-3-yl)phenyl)-2-chlorobenzamide], the IC50 with HCT116 GCN2KO (setting [2]) was determined as 2.78 µM; in the assay with HCT116 WT (setting [3]), 0.19 µM; with HCT116 WT (setting [4]), 0.49 µM; in the assay with HCT116 WT (setting [5]) it was 2.33 µM.
The matching figures for `Cn1nc(-c2ccc(NC(=O)c3ccccc3Cl)cc2)cc1NC(=O)c1cccc(C2(C(F)(F)F)N=N2)c1` [SW393172, 2-Chloro-N-(4-(1-methyl-5-(3-(3-(trifluoromethyl)-3H-diazirin-3-yl)benzamido)-1H-pyrazol-3-yl)phenyl)benzamide]: 4.37 µM, 3.6 µM, 5.08 µM and 5.25 µM.
For the compound `C#CCN(C(=O)c1ccccc1Cl)c1ccc(-c2cc(NC(=O)c3cccc(C4(C(F)(F)F)N=N4)c3)n(C)n2)cc1` [SW393173, 2-Chloro-N-(4-(1-methyl-5-(3-(3-(trifluoromethyl)-3H-diazirin-3-yl)benzamido)-1H-pyrazol-3-yl)phenyl)-N-(prop-2-yn-1-yl)benzamide], the IC50 in the assay on HCT116 GCN2KO (setting [2]) is 2.9 µM; with HCT116 WT (setting [3]), 2.4 µM; in the assay on HCT116 WT (setting [4]), 4 µM; in the assay with HCT116 WT (setting [5]), 3.11 µM.
As to `C#CCN(C(=O)c1ccccc1Cl)c1ccc(-c2cc(NC(=O)c3ccccc3)n(C)n2)cc1` [SW393174, N-(4-(5-Benzamido-1-methyl-1H-pyrazol-3-yl)phenyl)-2-chloro-N-(prop-2-yn-1-yl)benzamil-de], the IC50 stood at 6.37 µM in the assay with HCT116 GCN2KO (setting [2]), 6.1 µM in the assay with HCT116 WT (setting [3]), 7.18 µM with HCT116 WT (setting [4]) and 6.52 µM in the assay with HCT116 WT (setting [5]).
In the case of `C#Cc1cccc(C(=O)Nc2cc(-c3ccc(NC(=O)c4cc(N=[N+]=[N-])ccc4Cl)cc3)nn2C)c1` [SW393212, 5-Azido-2-chloro-N-(4-(5-(3-ethynylbenzamido)-1-methyl-1H-pyrazol-3-yl)phenyl)benza-mide], the IC50 in the assay with HCT116 WT (setting [3]) was determined as 0.72 µM. For the same compound, the “RPS23 bands after photo-crosslinking pull-down” value at RPS23 is “bands from WT but not RPS23 mutant cells”.

Broadly, the IC50 is the concentration that gives 50% inhibition.
